Experimental data reported in ChEMBL document CHEMBL1125524, “Adenosine A1 antagonists. 2. Structure-activity relationships on diuretic activities and protective effects against acute renal failure” (J Med Chem, 1992).
pKi: −log10 of the molar value.

Experiments:
Rattus norvegicus [1] = experiment: Serum creatinine concentration measured after intraperitoneal administration of 1 mg/kg of compound to rats(vehicle 2.75+/-0.43); type: functional
Rattus norvegicus [2] = experiment: Effect on urinary excretion potassium and sodium after oral administration of 0.0025 mg/kg to rats(potassium and sodium excretion in control rat is 0.146+/-0.006); type: functional, Urine
Rattus norvegicus [3] = experiment: Effect on urinary excretion potassium and sodium after oral administration of 0.005 mg/kg to rats(potassium and sodium excretion in control rat is 0.160+/-0.006); type: functional, Urine
Rattus norvegicus [4] = experiment: Ratio of urinary excretion value (Na+ concentration) in treated rats to that in control rats, at a peroral dose of 0.0025 mg/Kg; type: functional, Urine
Rattus norvegicus [5] = experiment: Ratio of urinary excretion value (Na+ concentration) in treated rats to that in control rats, at a peroral dose of 0.005 mg/Kg; type: functional, Urine
Rattus norvegicus [6] = experiment: Effect on urinary excretion potassium and sodium after oral administration of 0.4 mg/kg to rats(potassium and sodium excretion in control rat is 0.261+/-0.008); type: functional, Urine
Rattus norvegicus [7] = experiment: Effect on urinary excretion potassium and sodium after oral administration of 1.6 mg/kg to rats(potassium and sodium excretion in control rat is 0.173+/-0.016); type: functional, Urine
Rattus norvegicus [8] = experiment: Percent inhibition of serum creatinine by the compound given as ratio of Cr value in treated to vehicle treated ones after intraperitoneal administration of 1 mg/kg of compound to rats(vehicle 2.75+/-0.43); type: functional; conditions: ip
Rattus norvegicus [9] = experiment: Ratio of urinary excretion value (urinary volume) in treated rats to that in control rats, at a peroral dose of 0.1 mg/Kg; type: functional, Urine
Rattus norvegicus [10] = experiment: Ratio of urinary excretion value (urinary volume) in treated rats to that in control rats, at a peroral dose of 0.4 mg/Kg; type: functional, Urine
Rattus norvegicus [11] = experiment: Ratio of urinary excretion value (urinary volume) in treated rats to that in control rats, at a peroral dose of 1.6 mg/Kg; type: functional, Urine
Rattus norvegicus [12] = experiment: Ratio of urinary excretion value (urinary volume) in treated rats to that in control rats, at a peroral dose of 25 mg/Kg; type: functional, Urine
Rattus norvegicus [13] = experiment: Urea nitrogen concentration measured after intraperitoneal administration of 1 mg/kg of compound to rats(vehicle 123.2+/-14.2); type: functional
Rattus norvegicus [14] = experiment: Effect on urinary excretion potassium and sodium after oral administration of 0.025 mg/kg to rats(potassium and sodium excretion in control rat is 0.183+/-0.012); type: functional, Urine
Rattus norvegicus [15] = experiment: Effect on urinary excretion potassium and sodium after oral administration of 0.1 mg/kg to rats(potassium and sodium excretion in control rat is 0.143+/-0.013); type: functional, Urine
Rattus norvegicus [16] = experiment: Ratio of sodium ion/potassium ion concentration in treated rats to that in control rats, at a peroral dose of 0.0025 mg/Kg; type: functional
Rattus norvegicus [17] = experiment: Ratio of sodium ion/potassium ion concentration in treated rats to that in control rats, at a peroral dose of 0.005 mg/Kg; type: functional
Rattus norvegicus [18] = experiment: Ratio of sodium ion/potassium ion concentration in treated rats to that in control rats, at a peroral dose of 0.025 mg/Kg; type: functional
Rattus norvegicus [19] = experiment: Ratio of sodium ion/potassium ion concentration in treated rats to that in control rats, at a peroral dose of 0.1 mg/Kg; type: functional
Rattus norvegicus [20] = experiment: Ratio of sodium ion/potassium ion concentration in treated rats to that in control rats, at a peroral dose of 0.4 mg/Kg; type: functional
Rattus norvegicus [21] = experiment: Ratio of sodium ion/potassium ion concentration in treated rats to that in control rats, at a peroral dose of 1.6 mg/Kg; type: functional
Rattus norvegicus [22] = experiment: Ratio of sodium ion/potassium ion concentration in treated rats to that in control rats, at a peroral dose of 25 mg/Kg; type: functional
Rattus norvegicus [23] = experiment: Ratio of urinary excretion value (Na+ concentration) in treated rats to that in control rats, at a peroral dose of 0.1 mg/Kg; type: functional, Urine
Rattus norvegicus [24] = experiment: Ratio of urinary excretion value (Na+ concentration) in treated rats to that in control rats, at a peroral dose of 0.4 mg/Kg; type: functional, Urine
Rattus norvegicus [25] = experiment: Ratio of urinary excretion value (Na+ concentration) in treated rats to that in control rats, at a peroral dose of 1.6 mg/Kg; type: functional, Urine
Rattus norvegicus [26] = experiment: Ratio of urinary excretion value (Na+ concentration) in treated rats to that in control rats, at a peroral dose of 25 mg/Kg; type: functional, Urine
Rattus norvegicus [27] = experiment: Ratio of urinary excretion value (Na+ concentration) in treated rats to that in control rats, at a peroral dose of 6.25 mg/Kg; type: functional, Urine
Rattus norvegicus [28] = experiment: Ratio of urinary excretion value (urinary volume) in treated rats to that in control rats, at a peroral dose of 0.0025 mg/Kg; type: functional, Urine
Rattus norvegicus [29] = experiment: Ratio of urinary excretion value (urinary volume) in treated rats to that in control rats, at a peroral dose of 0.005 mg/Kg; type: functional, Urine
Rattus norvegicus [30] = experiment: Ratio of urinary excretion value (urinary volume) in treated rats to that in control rats, at a peroral dose of 0.025 mg/Kg; type: functional, Urine
Rattus norvegicus [31] = experiment: Effect on urinary excretion potassium and sodium after oral administration of 25 mg/kg to rats(potassium and sodium excretion in control rat is 0.138+/-0.008); type: functional, Urine
Rattus norvegicus [32] = experiment: Oral diuretic activity was measured after oral administration of 0.0025 mg/kg to rats(control volume is 0.95+/-0.12); type: functional, Urine
Rattus norvegicus [33] = experiment: Oral diuretic activity was measured after oral administration of 0.005 mg/kg to rats(control volume is 0.76+/-0.01); type: functional, Urine
Rattus norvegicus [34] = experiment: Oral diuretic activity was measured after oral administration of 0.025 mg/kg to rats(control volume is 0.82+/-0.05); type: functional, Urine
Rattus norvegicus [35] = experiment: Oral diuretic activity was measured after oral administration of 0.1 mg/kg to rats(control volume is 0.92+/-0.05); type: functional, Urine
Rattus norvegicus [36] = organism: Rattus norvegicus; type: functional, Urine; conditions: po, 1.6 mg/kg
Rattus norvegicus [37] = experiment: Percent inhibition of Urea nitrogen by the compound given as ratio of UN value in treated to vehicle treated ones after intraperitoneal administration of 1 mg/kg of compound to rats(vehicle 123.2+/-14.2); type: functional; conditions: ip
Rattus norvegicus [38] = experiment: Ratio of urinary excretion value (Na+ concentration) in treated rats to that in control rats, at a peroral dose of 0.025 mg/Kg; type: functional, Urine
Rattus norvegicus [39] = experiment: Ratio of urinary excretion value (urinary volume) in treated rats to that in control rats, at a peroral dose of 6.25 mg/Kg; type: functional, Urine
Rattus norvegicus [40] = experiment: Oral diuretic activity was measured after oral administration of 0.4 mg/kg to rats(control volume is 1.4+/-0.05); type: functional, Urine
Rattus norvegicus [41] = experiment: Oral diuretic activity was measured after oral administration of 25 mg/kg to rats(control volume is 0.66+/-0.04); type: functional, Urine
Adenosine A2 receptor = Adenosine A2 receptor (Rattus norvegicus, UniProt P29276+P30543)

Q: How did the Cr (Rattus norvegicus [1]) turn out when CCCn1c(=O)c2nc(C34CC5CC(CC3C5)C4)[nH]c2n(CCC)c1=O [ROLOFYLLINE] was run?
A: 2 mg/dL

Q: And the Na (Rattus norvegicus [2])?
A: 0.258 m equiv 6hr-1 100g-1

Q: And the Na (Rattus norvegicus [3])?
A: 0.256 m equiv 6hr-1 100g-1

Q: What about the T/C (Rattus norvegicus [4]) of the same compound?
A: 1.76

Q: And the T/C (Rattus norvegicus [5])?
A: 1.6

Q: What about the Na (Rattus norvegicus [6]) of the same compound?
A: 0.447 m equiv 6hr-1 100g-1

Q: And the Na (Rattus norvegicus [7])?
A: 0.399 m equiv 6hr-1 100g-1

Q: What about the inhibition in vivo at 1 mg/kg (Rattus norvegicus [8]) of the same compound?
A: 47%

Q: And the T/C (Rattus norvegicus [9])?
A: 2.65

Q: What about the T/C (Rattus norvegicus [10]) of the same compound?
A: 1.86

Q: And the T/C (Rattus norvegicus [11])?
A: 2.61

Q: And the T/C (Rattus norvegicus [12])?
A: 4.15

Q: What about the UN (Rattus norvegicus [13]) of the same compound?
A: 66.4 mg/dL

Q: And the Na (Rattus norvegicus [14])?
A: 0.331 m equiv 6hr-1 100g-1

Q: And the Na (Rattus norvegicus [15])?
A: 0.334 m equiv 6hr-1 100g-1

Q: What about the “Na+/K+” value (Rattus norvegicus [16]) of the same compound?
A: 1.59

Q: And the “Na+/K+” value (Rattus norvegicus [17])?
A: 1.11

Q: What about the “Na+/K+” value (Rattus norvegicus [18]) of the same compound?
A: 1.45

Q: What about the “Na+/K+” value (Rattus norvegicus [19]) of the same compound?
A: 1.9

Q: And the “Na+/K+” value (Rattus norvegicus [20])?
A: 1.42

Q: What about the “Na+/K+” value (Rattus norvegicus [21]) of the same compound?
A: 1.93

Q: And the “Na+/K+” value (Rattus norvegicus [22])?
A: 2.05

Q: And the T/C (Rattus norvegicus [23])?
A: 2.34

Q: What about the T/C (Rattus norvegicus [24]) of the same compound?
A: 1.7

Q: What about the T/C (Rattus norvegicus [25]) of the same compound?
A: 2.3

Q: What about the T/C (Rattus norvegicus [26]) of the same compound?
A: 3.44

Q: What about the T/C (Rattus norvegicus [27]) of the same compound?
A: 2.64

Q: And the T/C (Rattus norvegicus [28])?
A: 1.69

Q: What about the T/C (Rattus norvegicus [29]) of the same compound?
A: 1.83

Q: What about the T/C (Rattus norvegicus [30]) of the same compound?
A: 2.13

Q: And the Na (Rattus norvegicus [31])?
A: 0.457 m equiv 6hr-1 100g-1

Q: And the Urine volume (Rattus norvegicus [32])?
A: 1.61 ml 6hr-1 100g-1

Q: What about the Urine volume (Rattus norvegicus [33]) of the same compound?
A: 1.39 ml 6hr-1 100g-1

Q: What about the Urine volume (Rattus norvegicus [34]) of the same compound?
A: 1.75 ml 6hr-1 100g-1

Q: And the Urine volume (Rattus norvegicus [35])?
A: 2.44 ml 6hr-1 100g-1

Q: And the Urine volume (Rattus norvegicus [36])?
A: 2.77 ml 6hr-1 100g-1

Q: What about the inhibition in vivo at 1 mg/kg (Rattus norvegicus [37]) of the same compound?
A: 46%

Q: What about the T/C (Rattus norvegicus [38]) of the same compound?
A: 1.81

Q: What about the T/C (Rattus norvegicus [39]) of the same compound?
A: 2.9

Q: And the Urine volume (Rattus norvegicus [40])?
A: 2.64 ml 6hr-1 100g-1

Q: And the Urine volume (Rattus norvegicus [41])?
A: 2.74 ml 6hr-1 100g-1

Q: What about the pKi (Adenosine A2 receptor) of the same compound?
A: 6.42
